Laboratory results published in US20090054333A1, “Peptide inhibitors of cyclin-dependent kinase activity and uses thereof” (priority 2006, published 2009).

System: endogenous cdk2
Test: endogenous cdk2 kinase activity after transient transfection of NIH/3T3 cells
Format: cell-based
Settings: NIH/3T3 transfected with pEF6/V5 constructs; 48 h after transfection
Description: Kinase assays: Cell lysates from NIH/3T3 were prepared by resuspending pelleted cells in 500 μl of lysis buffer (50 mM Tris, 5 mM EDTA, 250 mM NaCl, 50 mM NaF, 0.1% Triton, 0.1 mM Na3VO4, plus protease inhibitors). An equal amount of protein for each fraction (100 μg) was immunoprecipitated with a polyclonal anti-cdk2 antibody (De Luca et al., 1997, J Biol Chem, 272, 20971-4). The complexes were pulled down with protein A-Sepharose and washed three times with lysis buffer and twice with lysis buffer containing 400 mM NaCl. The complexes were equilibrated in kinase assay buffer (20 mM HEPES pH 7.4, 10 mM MgAc, […], 1 mM DTT). In order to detect the in vitro inhibition of cdk2 activity, each sample was incubated with an equal amount (0.1 μg) of each pGEX-2T fusion protein, in a final volume of 20 μl of kinase buffer, using 5 μCi/sample of γ-ATP (Amersham Biosciences, Piscataway, N.J.) and 2 μg of Histone H1 for 30 minutes at 30° C. Kinase assays were repeated at least three times, giving an inter assay standard deviation within 10% after normalization for protein amount. […]
In FIG. 3a, asynchronously growing NIH/3T3 cells were transfected with pEF6/V5 vector, pEF6/V5-Spa310 or pEF6/V5-spacer. […] Phosphorylation of histone H1 was monitored by autoradiography. […]

With “Spa310: pRb2/p130 amino acids 641-679 (39 amino acids long), SEQ ID NO:3; LTPRRVTEVRADTGGLGRSITSPTTLYDRYSSPPASTTR (listed as Homo sapiens)” the “inhibition of cdk2-dependent histone phosphorylation (endogenous cdk2)” value was “significant inhibition”.

B1: Spacer: full-length pRb2/p130 spacer domain, amino acids 616-828 (SEQ ID NO:20) (protein, listed as Homo sapiens)
chain: VPTCEEVMPPQNLERADEICIAGSPLTPRRVTEVRADTGGLGRSITSPTTLYDRYSSPPASTTRRRLFVENDSPSDGGTPGRMPPQPLVNAVPVQNVSGETVSVTPVPGQTLVTMATATVTANNGQTVTIPVQGIANENGGITFFPVQVNVGGQAQAVTGSIQPLSAQALAGSLSSQQVTGTTLQVPGQVAIQQISPGGQQQKQGQSVTSSSN
In the case of B1, the “inhibition of cdk2-dependent histone phosphorylation (endogenous cdk2)” value is reported as “significant inhibition”.
